Patent US10959955B1 (RHOSHAN PHARMACEUTICALS, INC., priority 2017, dated 2021)
Values after ≈ are worked out from the molar mass of the structure shown.

Assays:
[1] = physchem
Protocol: The batch volume was made up to 100 ml with addition of 70/30 TBA/water. […] 5 ml aliquots were placed in flint vials and lyophilized. Upon completion of lyophilization, the contents of the vial were reconstituted with 5 ml of Water for Injection.

[2] = pH and appearance of bulk and reconstituted solutions of ASA co-lyophilized with bases in TBA/water; format: physicochemical; conditions: 20 mg/ml aspirin in 80% TBA/20 water
Text: The pH of the solution was raised to 6.5 using 1N sodium hydroxide. Phase separation was observed, probably due to salting out of inorganic base from TBA/Water system. In the next trial, we first raised the pH of the solution to 5.0 using 1N sodium hydroxide, and then sodium phosphate, dibasic to raise the pH to 6.5. Sodium phosphate, dibasic was used for a better control of pH. Since we still observed phase separation it appears that inorganic bases or buffers may not be compatible with a 80% TBA/20% water system. We may require more water, for example, 70% TBA/30% water in the system to dissolve the alkalinizing agents.
The reconstituted solution pH was 4.71.
In the next trial, we investigated incorporation of […] to facilitate complete neutralization. […] Arginine was, then, slowly added to the slurry to neutralize aspirin. […] The apparent pH of the bulk solution was 6.49. 5 ml aliquots placed in flint vials and lyophilized. Upon completion of lyophilization, the content of vial was reconstituted with 5 ml of Water for Injection. […] The reconstituted solution pH was 4.8.
Based on the above studies, it was evident that larger amount of base is needed to neutralize ASA in the preferred solvent system. To incorporate more base in the bulk solution, we explored use of 60/40 TBA/water system as solvent for lyophilization. […] The apparent pH of the bulk solution was 6.31. […]

[3] = intravenous vs oral; cited from earlier work
[4] = Tonicity and pH of reconstituted solutions of ASA; format: physicochemical
Text: Since the aspirin product will be administered via an IV bolus route, tonicity of the final reconstituted solution is acritical factor to avoid pain at the injection site.

[5] = test system: platelet aggregation; conditions: following oral dosing; cited from earlier work
[6] = oral tablets; cited from earlier work
[7] = Bulk solution stability of Example 3C at 25° C.; format: physicochemical
Protocol: All three solutions were filtered and 5 ml each placed in a Type I flint vials and lyophilized. […] The lyophilized cakes in all vials were shrunken and collapsed. […] Since lyophilization of the ASA-lysine solution was carried out at about −30° C., all water was removed by sublimation at this low temperature. It is not known whether degradation took place during the lyophilization or during the preparation of the bulk solution or combination of both. Therefore, we have investigated the bulk solution stability of example 3C at 25° C.

[8] = Reconstitution of ASA lyophile with various basifying agents; format: physicochemical; conditions: basifying agent diluents of examples 13 and 14, without polysorbate 80
Protocol: One aspect of this invention was to produce a stable lyophilized product and a solvent system with sufficient bulk solution stability to withstand an aseptic processing and lyophilization process. The lyophilized products we have manufactured in most of these studies were made with 80% TBA/20% to 60% TBA/40% water solvent system and the bulk solution for lyophilization stable for 24 hours with minimal degradation. We have achieved this goal. […] The reconstitution studies were done by reconstituting a 100 mg vial with 5 ml of solution containing a buffer or a basifying agent or a combination of both.

[9] = cited from earlier work
[10] = test system: Thromboxane B2; conditions: in 5 minutes of post bolus injection; 5 ml of 100 mg/ml ASA injected in less than 2 minutes; cited from earlier work

## tris(hydroxymethyl)aminomethane
[1]; 70/30 TBA/water, neat free base without ASA
  solubility: 5000 µg/mL

## o-acetylsalicylic acid [Aspirin]
[2]
  apparent pH of the bulk solution: 2.9
[3]
  effectiveness of intravenously administered solution versus orally administered equal amount: four times as high
[4]; 12 mg/mL Na2HPO4 and 27 mg/mL of Tris buffer with 0.05% Tween80, 10 mL, ASA 50 mg/mL
  Osmolality (m.Osm/Kg): 717 m.Osm/Kg
[4]; 17.5 mg/mL Tris Buffer with 0.05% Tween80, 20 mL, ASA 25 mg/mL
  Osmolality (m.Osm/Kg): 269 m.Osm/Kg
[4]; 20 mg/mL Na2HPO4 with 0.05% Tween80, 25 mL, ASA 20 mg/mL
  Osmolality (m.Osm/Kg): 481 m.Osm/Kg
[4]; 30 mg/mL of lysine and 7.5 mg/mL of Tris buffer, 20 mL, ASA 25 mg/mL
  Osmolality (m.Osm/Kg): 338 m.Osm/Kg
[4]; 34 mg/mL Tris Buffer with 0.05% Tween80, 10 mL, ASA 50 mg/mL
  Osmolality (m.Osm/Kg): 549 m.Osm/Kg
[4]; 34 mg/mL Tris Buffer, 10 mL, ASA 50 mg/mL
  Osmolality (m.Osm/Kg): 540 m.Osm/Kg
[4]; 40 mg/mL L-Lysine, 20 mL, ASA 25 mg/mL
  Osmolality (m.Osm/Kg): 380 m.Osm/Kg
[4]; 40 mg/mL of L-Lysine with 0.05% Tween80, 20 mL, ASA 25 mg/mL
  Osmolality (m.Osm/Kg): 388 m.Osm/Kg
[4]; 50 mg/mL Na2HPO4 with 0.05% Tween80, 10 mL, ASA 50 mg/mL
  Osmolality (m.Osm/Kg): 1172 m.Osm/Kg
[4]; 68 mg/mL Tris Buffer with 0.05% Tween80, 10 mL, ASA 100 mg/mL
  Osmolality (m.Osm/Kg): 1060 m.Osm/Kg
[4]; 68 mg/mL Tris Buffer with 0.05% Tween80, Aspirin API 1 g, 10 mL, ASA 100 mg/mL
  Osmolality (m.Osm/Kg): 1036 m.Osm/Kg
[5]
  onset of inhibition of platelet aggregation: approximately 40 minutes
[6]
  initial onset of pain relief: about 30 minutes
[7]; 4 hours
  Area % of Salicylic Acid: about 9 Area %
[7]; Initial
  Area % of Salicylic Acid: about 3 Area %
[8]
  appearance of reconstituted solution: did not show any haziness
[9]; aqueous aspirin solution
  pH of the solution: about 2.5
[9]; concentrated aqueous bulk solution
  time to 10% of potency loss: about 1.3 hours
[9]; pH 2.5
  degradation rate: about 2 % per day

## NCCCC[C@H](N)C(=O)O [lysine]
[1]; organic solvent or mixture
  solubility: 2000 µg/mL (≈ 13.7 mM)

## CC(=O)Oc1ccccc1C(=O)O.NCCCCC(N)C(=O)O [aspirin lysine salt]
[10]
  Thromboxane B2 inhibited: greater than 95%
[9]; Bayer sterile dry powder product
  shelf life: one year
